Data from patent EP0499337A1, “Use of tetra:hydro-thieno-pyrido-indole derivatives for the treatment of skin disorders” (YAMANOUCHI EUROPE B.V., priority 1991, dated 1992).
Like-named read-outs stand apart in the source and are kept apart here.

Columns and labels:
PMHL = test: Nonspecific cytotoxicity, trypane blue exclusion test; assay type: cell-based, human
Method: Nonspecific cytotoxicity of the test compounds on PMHL was assessed by […] blue exclusion test.

HaCaT cells [1] = test: Cytotoxicity, LDH release into the culture medium; details: 48 h after onset of drug exposure
Method: HaCaT cells were grown as described.
Cytotoxicity was assessed by measurements of the content of intracellular lactate dehydrogenase (LDH) activity released into the culture medium during 48 h after onset of drug exposure. Possible drug induced detachment of the HaCaT cells from the plate was assessed by collection of the medium from the wells and centrifugation (80 x g, 10 min.) The resulting pellet was suspended in 10 µl medium and cells were counted in a haemocytometer.

[2] = system: human polymorphonuclear leukocytes (PMNL); test: ROS generation from PMNL, lucigenin-amplified chemiluminescence; assay type: cell-based; details: Homo sapiens, PMNL, IC₅₀-values
Method: Human PMNL were isolated from fresh blood (anticoagulated with sodium citrate) by erythrocyte sedimentation with 1% dextran (Pharmacia, Uppsala, Sweden) centrifugation of the resulting supernatant, followed by hypoosmotic lysis to remove red blood cells. Washed cells were adjusted to 2 x 10⁶ cells/ml in PBS containing fetal calf serum (2%; v/v). Test compounds dissolved in DMSO were diluted with the assay buffer to a final DMSO concentration of 0.5% (v/v).
Then the test compounds (100 µl) were added with subsequent recording for another 16 min period. […] Results were expressed as percent of inhibition or stimulation of the controls (mean of two integrals) in a single experiment.

[3] = system: TPA-induced ear edema in mice; test: Intraperitoneal administration, TPA-induced ear edema in mice; assay type: in vivo; details: intraperitoneally, 30, 10 or 3.3 mg/kg
Method: Mice were injected intraperitoneally with 30, 10 or 3.3 mg/kg body weight of the test substances, sphingosine in carboxymethylcellulose (0.5%) and tiflucarbine in physiologic Saline, 10 ml/kg body weight. After 60 minutes the mire were challenged on the left ear with a 0.01 wt% solution of 12-O-tetradecanoylphorbol-13-acetate (TPA) in a 80/20 mixture of acetone/water. At 0, 3, 6 and 24 h after challenge, ear thickness was determined.

[4] = system: PKC from the central nervous system; test: Phosphorylation of synaptosomal plasma membranes: B-50 phosphorylation; assay type: biochemical; details: for phosphorylation of B-50 (% of control): without addition of CaM
Method: Subcellular fractionation and phosphorylation assay were performed according to Kristjansson et al., (1982). […] After a preincubation at 30°C for 5 min, the phosphorylation reaction was started by adding the ATP. The reaction was stopped after 15 sec. All compounds to be tested were present at the start of the preincubation. […]

50 kDa protein = test: Phosphorylation of synaptosomal plasma membranes: CaM-dependent phosphorylation of the 50 kDa protein; assay type: biochemical; details: in the presence of added CaM
Method: Subcellular fractionation and phosphorylation assay were performed according to Kristjansson et al., (1982). […] After a preincubation at 30°C for 5 min, the phosphorylation reaction was started by adding the ATP. The reaction was stopped after 15 sec. All compounds to be tested were present at the start of the preincubation. […] Phosphorylation of B-50 and the 50 kDa protein, which was only phosphorylated after addition of CaM, was measured in the presence of exogenous CaM (3 units/assay) and quantified.

rat brain synaptosomes = test: Noradrenaline release from permeated synaptosomes; assay type: cell-based; details: 100 µM
Method: Highly purified synaptosomes were prepared according to Dunkley and Robinson (1987). The synaptosomes were diluted with 3 ml buffer A (123 mM NaCl, 5 mM KCl, 2 mM CaCl₂, […], 1.15 mM NaH₂PO₄, 5.6 mM glucose, 20 mM PIPES pH 6.8, gassed with O₂:CO₂, 95:5) and incubated for 15 min at 37°C. Then 2.5 µCi noradrenalin (NA) was added, incubation was continued for 15 min and the synaptosomes were centrifuged for 20 min at 600 x g. The resulting pellet was washed twice in buffer A without CaCl₂ and resuspended (1 mg protein/ml).
For measurement of NA release, prelabeled synaptosomes were incubated at 37°C in buffer A containing Na₂ATP and EGTA-buffered Ca²⁺ in concentrations as indicated (final volume 120 µl). The release reaction was started by adding synaptosomes (20 µg protein) to the reaction mixture and terminated after 5 min by 30 sec centrifugation at 10,000 x g. The supernatant (90 µl) was collected and counted in a Packard Model 2,000 CA liquid scintillation counter with Picofluor as a scintillation cocktail. NA release was expressed as % of total [³H]-NA incorporated. Total NA incorporation was determined by measuring [³H]-incorporation in 20 µg prelabeled washed synaptosomes.

[5] = system: Normal human keratinocytes; test: Cornified envelope formation (keratinocyte differentiation); assay type: cell-based; details: 4 h plus 48 h exposure, increasing concentrations
Method: Normal human keratinocytes were grown to confluence at low calcium concentration in the presence of 5% FCS, 1 µM isoproterenol and 10 ng EGF per ml. They were first exposed for 4 h to increasing concentrations of test compounds and subsequently reincubated for 48 h in medium containing normal calcium concentration and the same additives, test compounds and [³H]-leucine (1 µCi/ml). Thereafter, both spontaneous and ionophore-induced cornified envelope (CE) formation was determined [King et al. (1986) Exp. Cell. Res., 167: 252].

HaCaT cells [6] = test: Keratinocyte morphology, phase contrast microscopy; assay type: cell-based, human; details: 30 nM, monitored during 72 hours
Method: HaCaT cells were cultured under standard conditions. 24 h after plating (2.5 x 10⁶ cells) the medium was replaced by medium containing the test compounds. During 72 hours cell morphology was frequently monitored using a phase contrast photomicroscope (Olympus IMT-2, Tokyo, Japan).

[7] = 16 min, compound added at peak, 16 min after opsonized zymosan, read-out: Peak CL
[8] = 30 min preincubation, unstimulated, read-out: Spontaneous CL
[9] = stimulation with opsonized zymosan after preincubation, read-out: Induced CL

Compound	Trypane blue (PMHL) [µM]	LDH release (HaCaT cells [1]) [µM]	IC50 [2, 7] [µM]	IC50 [2, 8] [µM]	IC50 [2, 9] [µM]	other results
CN1CCN(CCCN2c3ccccc3Sc3ccc(C(F)(F)F)cc32)CC1 [Trifluoroperazine]	100	30	–	–	–	–
NCCCCCCNS(=O)(=O)c1cccc2c(Cl)cccc12 [W-7, N-(6-aminohexyl)-5-chloro-1-naphthalene sulfonamide]	15	100	10	6.3	6.3	–
CC(CN1c2ccccc2Sc2ccccc21)N(C)C (stereo not drawn) [Promethazine]	100	100	62.3	23.6	31.4	–
CN(C)CCCN1c2ccccc2Sc2ccc(Cl)cc21 [Chlorpromazine]	30	30	21.8	4.9	7.6	–
CSc1ccc2c(c1)N(CCC1CCCCN1C)c1ccccc1S2 (stereo not drawn) [Thioridazine]	–	–	10.6	2.4	6.4	–
CCCCCCCCCCCCC/C=C/[C@@H](O)[C@@H](N)CO [Sphingosine]	–	–	–	–	–	ear edema (ear thickness), compared with tiflucarbine [3]: more potent
Polymyxin B	–	–	–	–	–	B-50 phosphorylation ([4]; in the presence of exogenous CaM (3 units/assay)): dose-dependently inhibited; phosphorylation of B-50 (% of control) ([4]; concentration 0.1 µM): 95 ± 8 % of control; phosphorylation of B-50 (% of control) ([4]; concentration 1 µM): 103 ± 9 % of control; phosphorylation of B-50 (% of control) ([4]; concentration 10 µM): 82 ± 11 % of control; phosphorylation of B-50 (% of control) ([4]; concentration 100 µM): 18 ± 8 % of control; phosphorylation of the 50 kDa protein (50 kDa protein): dose-dependently inhibited; noradrenaline release (rat brain synaptosomes; high (10 µM) Ca²⁺): 19.4 ± 2.38 % of total [³H]-noradrenaline; noradrenaline release (rat brain synaptosomes; low (10 nM) Ca²⁺): 16.5 ± 1.03 % of total [³H]-noradrenaline
CN[C@@H]1C[C@H]2O[C@@](C)([C@@H]1OC)n1c3ccccc3c3c4c(c5c6ccccc6n2c5c31)C(=O)NC4 [Staurosporine]	3	10	–	–	–	spontaneous CE formation [5]: marked effect; effect on morphology (HaCaT cells [6]): effects on morphology
